The source of these data is patent publication US7655671B2, “Morphinan derivatives, the quaternary ammonium salts thereof substituted in position 14, method for production and use thereof” (priority 2002, dated 2010).

Structures can show the parent of a compound that is named as a salt. Where two headings read alike, the source gives them in different places. Bounds are passed on as bounds.

As usually defined, the Ki is a measure of affinity in units of concentration, obtained from inhibition or displacement. By melting point is commonly meant the temperature, or range, at which the solid turns liquid.

One data set addresses T1, μ-opioid receptors (Rattus norvegicus, UniProt P33535).
T1 construct: from tissue; host or cells: rat brain homogenate
Kind of data set: Opioid receptor binding studies on rat's brain homogenisates with [3H]DAMGO.

The next data set relates to rats. Kind of data set: Rat tail flick test (analgesia). It is filed as in vivo. As to conditions: for ED50 (μg/rat, icv): rats of 120 g; for ED50: sc, read-out: ED50 (μg/kg, sc). Here is the method: To determine the analgesic activity of quaternised compounds, a test on rats, the “Rat Tail Flick Test”, was used. The test was carried out as described earlier (Zs. Fürst et al., Eur. J. Pharmacol. 1993; 236: 209-215).

The subject of data set [1] is mice. Kind of data set: animal or person. It is filed as in vivo. As to conditions: mouse tail flick test; for ED50 / analgesic activity (in words): sc; for ED50 / ED50 (μg/kg, sc): subcutaneous application; for ED50: read-out: ED50 (μg/kg, sc). On the technique in general: Thermal pain tests record how soon the animal reacts.
Data set [2] has as its system mice. Briefly: Hot-plate test (analgesia). As to conditions: for ED50: Mus musculus, read-out: ED50 (μg/kg, sc); for ED50 / analgesic activity (in words): sc; for ED50 / ED50 (μg/kg, sc): subcutaneous application. It is filed as in vivo, mouse. The method, then: A test on mice (“hot-plate test”) was carried out as described earlier (E. L. May et al., J. Med. Chem. 2000; 43, 5030-5036).

For the next data set, the target named is T2, μ-receptors (Mus musculus, UniProt P42866).
T2 construct: Vas Deferens Preparation of the Mouse; from tissue; host or cells: mouse vas deferens
T2 sequence (P42866 whole entry): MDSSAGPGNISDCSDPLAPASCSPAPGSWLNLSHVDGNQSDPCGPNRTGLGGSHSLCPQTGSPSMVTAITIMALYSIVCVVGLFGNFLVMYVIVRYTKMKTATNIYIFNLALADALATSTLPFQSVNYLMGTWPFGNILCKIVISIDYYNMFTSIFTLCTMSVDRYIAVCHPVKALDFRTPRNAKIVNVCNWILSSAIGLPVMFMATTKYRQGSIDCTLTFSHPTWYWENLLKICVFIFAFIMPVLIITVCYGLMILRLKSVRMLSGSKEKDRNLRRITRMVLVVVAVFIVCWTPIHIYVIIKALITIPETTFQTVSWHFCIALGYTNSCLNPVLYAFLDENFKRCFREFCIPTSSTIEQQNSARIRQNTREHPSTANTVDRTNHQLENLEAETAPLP
Briefly: Antagonistic activity in the vas deferens preparation of the mouse using DAMGO. It is filed as biochemical. Further details: Ke (vM) (μ-receptors): unit not given here. As to conditions: antagonistic Ke against DAMGO.

[3] abbreviates: rat tail flick test, intracerebroventricular application.
Setting [4] is: rat tail flick test, subcutaneous application.
The mark [5] stands for this setting: [3H]DAMGO as radio-ligand, rat's brain homogenisates, read-out: Ki (nM) (μ-receptors).

T1 sequence (P33535 whole entry): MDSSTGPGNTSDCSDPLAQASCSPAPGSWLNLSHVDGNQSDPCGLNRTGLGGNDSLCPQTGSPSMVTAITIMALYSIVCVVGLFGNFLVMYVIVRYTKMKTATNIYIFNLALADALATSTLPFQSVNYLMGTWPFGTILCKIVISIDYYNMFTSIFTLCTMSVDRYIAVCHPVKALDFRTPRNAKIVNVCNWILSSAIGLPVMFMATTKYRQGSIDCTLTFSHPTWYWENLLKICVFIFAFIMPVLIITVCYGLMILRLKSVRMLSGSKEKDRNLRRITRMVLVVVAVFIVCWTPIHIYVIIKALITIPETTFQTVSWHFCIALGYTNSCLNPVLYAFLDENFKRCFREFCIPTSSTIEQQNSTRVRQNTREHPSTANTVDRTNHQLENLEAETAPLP

`C[N+]1(C)CC[C@]23c4c5ccc(O)c4O[C@H]2C(=O)CC[C@@]3(OCCCc2ccccc2)[C@H]1C5.[I-]` [Compound 38, 4,5α-epoxy-3-hydroxy-17,17-dimethyl-6-oxo-14β-[(3-phenylpropyl)oxy]morphinanium-iodide] gave a melting point of 164 to 170 °C. In addition, the Ki on μ-opioid receptors was found to be 4.11 nM. The “ED50 (μg/rat, icv)” value with rats (setting [3]) was found to be 12 μg/rat. In the data set with rats (setting [4]), the “analgesic effect (in words)” value is reported as “very high analgesic effect” and the ED50 was 120 µg/kg.

`O=C1CC[C@@]2(OCCCc3ccccc3)[C@H]3Cc4cccc5c4[C@@]2(CC[N@H+]3CC2CC2)[C@H]1O5.[Cl-]` [Compound 54, 17-(cyclopropylmethyl)-4,5α-epoxy-14β-[(3-phenylpropyl)oxy]morphinan-6-one hydrochloride]: the melting point is 145 to 150 °C. The affinity on μ-opioid receptors, expressed as Ki, was 0.84 nM.

As for `O=C1CC[C@@]2(OCCCc3ccccc3)[C@H]3Cc4ccc(O)c5c4[C@@]2(CCN3CC2CCC2)[C@H]1O5` [Compound 7, 17-cyclobutylmethyl-4,5α-epoxy-3-hydroxy-14β-(3-phenylpropyloxy)morphinan-6-one hydrochloride], the results for the ED50 in the data set on mice [1] and in the data set with mice [2] were 8.2 µg/kg and 3.7 µg/kg, respectively.

Turning to `O=C1CC[C@@]2(OCCCc3ccccc3)C3Cc4ccc(O)c5c4[C@@]2(CCN3CC2CCCO2)[C@H]1O5` (stereo partly drawn) [Compound 10, 4,5α-epoxy-17-[2-((R,S)-tetrahydrofuran-2-yl)methyl]-3-hydroxy-14β-(3-phenylpropyloxy)morphinan-6-one hydrochloride], the ED50 in the data set on mice [1] was 7 µg/kg; with mice [2] it was 1.3 µg/kg.

With `O=C1CC[C@@]2(OCCCc3ccccc3)[C@H]3Cc4cccc(O)c4[C@@]2(CC[N@H+]3CC2CC2)C1.[Cl-]` [Compound 55, 17-(cyclopropylmethyl)-4-hydroxy-14β-[(3-phenylpropyl)oxy]morphinan-6-one hydrochloride], the melting point was > 170 °C (dec.). Affinity at μ-opioid receptors was put at a Ki of 0.4 nM.

Consider `O=C1CC[C@@]2(OCCCc3ccccc3)[C@H]3Cc4ccc(O)c5c4[C@@]2(CCN3CC2CC2)[C@H]1O5` [Compound 8, 17-cyclopropylmethyl-4,5α-epoxy-3-hydroxy-14β-(3-phenylpropyloxy)morphinan-6-one hydrochloride], for which the figures for the ED50 in the data set with mice [1] and with mice [2] were 3.2 µg/kg and 2.3 µg/kg, respectively. Also, at μ-opioid receptors (setting [5]), the Ki was determined as 0.34 nM.

Regarding `C=CCN1CC[C@]23c4c5ccc(O)c4O[C@H]2C(=O)CC[C@@]3(OCCCc2ccccc2)[C@H]1C5` [Compound 6, 17-allyl-4,5α-epoxy-3-hydroxy-14β-(3-phenylpropyloxy)morphinan-6-one hydrochloride], the ED50 in the data set with mice [1] came to 5.6 µg/kg; in the data set with mice [2], 5.9 µg/kg.

Turning to `C#CCOc1ccc2c3c1O[C@@]1(C)C(=O)CC[C@@]4(OCCCc5ccccc5)[C@@H](C2)N(C)CC[C@]314.Cl` [Compound 17, 4,5α-epoxy-5β,17-dimethyl-14β-[(3-phenylpropyl)oxy]-3-[(prop-2-inyl)oxy]morphinan-6-one hydrochloride], the “ED50 (μg/kg, sc)” value in the data set on mice [1] was determined as 21 µg/kg; in the data set with mice [2] it was 38 µg/kg. Further, the Ki on μ-opioid receptors (setting [5]) worked out at 0.73 nM. For the same compound, the “analgesic activity (in words)” value in the data set with mice [2] is given as “surprisingly high”.

As for `COc1ccc2c3c1O[C@H]1C(=O)CC[C@@]4(OCCCc5ccccc5)[C@@H](C2)N(CCc2ccccc2)CC[C@]314` [Compound 4, 4,5α-epoxy-3-methoxy-17-(2-phenylethyl)-14β-(3-phenylpropyloxy)morphinan-6-one hydrochloride], in the data set with mice [1], the “analgesic activity (in words)” value is reported as “somewhat lower analgesic activity” and the ED50 turned out to be 84 µg/kg. Also, in the data set with mice [2], the ED50 came out at 60 µg/kg and the “analgesic activity (in words)” value is “somewhat lower analgesic activity”.

For the compound `O=C1CC[C@@]2(OCCCc3ccccc3)[C@H]3Cc4ccc(O)c5c4[C@@]2(CCN3CCc2ccccc2)[C@H]1O5` [Compound 9, 4,5α-epoxy-3-hydroxy-17-(2-phenylethyl)-14β-(3-phenylpropyloxy)morphinan-6-one hydrochloride], in the data set with mice [2], the ED50 was 11.7 µg/kg.

With `COc1ccc2c3c1O[C@@]1(C)C(=O)CC[C@@]4(OCCCc5ccccc5)[C@@H](C2)N(C)CC[C@]314` [Compound 17a, 4,5α-epoxy-3-methoxy-5β,17-dimethyl-14β-[(3-phenylpropyl)oxy]morphinan-6-one], the melting point lay in the range of 126 to 128 °C. The ED50 in the data set with mice [1] turned out to be 4.4 µg/kg. Moreover, the Ki at μ-opioid receptors was 0.62 nM. The ED50 in the data set with mice [2] was determined as 2.6 µg/kg.

`CN1CC[C@]23c4c5ccc(O)c4O[C@@]2(C)C(=O)CC[C@@]3(OCCCc2ccccc2)[C@H]1C5` [Compound 17b, 4,5α-epoxy-3-hydroxy-5β,17-dimethyl-14β-[(3-phenylpropyl)oxy]morphinan-6-one hydrobromide] had an inhibitory constant (Ki) at μ-opioid receptors of 0.2 nM. Moreover, the ED50 with mice [2] came out at 0.1 µg/kg.

`COc1ccc2c3c1O[C@H]1C(=O)CC[C@@]4(OCCCc5ccccc5)[C@@H](C2)[N@@+](C)(CC2CC2)CC[C@]314.[I-]` [Compound 49, (17R)-17-cyclopropylmethyl-4,5α-epoxy-3-methoxy-17-methyl-6-oxo-14β-[(3-phenylpropyl)oxy]morphinanium-iodide]: the melting point was 133 to 136 °C. This compound gave a Ki at μ-opioid receptors of 1.78 nM.

With `CN1CC[C@]23c4c5cccc4O[C@H]2C(=O)CC[C@@]3(OCCCc2ccccc2)[C@H]1C5` [Compound 53, 4,5α-epoxy-17-methyl-14β-[(3-phenylpropyl)oxy]morphinan-6-one], the melting point is 105 to 109 °C. Also, in the data set with mice [1], the ED50 was 0.4 µg/kg. Further, the ED50 with mice [2] was found to be 3 µg/kg.

For the compound `COc1c(O)ccc2c1[C@]13CCN(CC4CC4)[C@H](C2)[C@]1(OC)CCC(=O)C3` [3-hydroxycyprodime, reference compound], the Ki on μ-opioid receptors (setting [5]) stood at 6.15 nM. The “affinity to μ-opioid receptors (in words)” value at μ-opioid receptors ([3H]DAMGO, rat's brain homogenisates) is recorded as “clearly lower affinity”. The “Ke (vM) (μ-receptors)” value at μ-receptors is reported as 5.62.

On to `C=CC[N@+]1(C)CC[C@]23c4c5ccc(O)c4O[C@H]2C(=O)CC[C@@]3(OC)[C@H]1C5.[I-]` [Compound 43, (17S)-17-allyl-4,5α-epoxy-3-hydroxy-14β-methoxy-17-methyl-6-oxomorphinanium-iodide], for which the melting point was above 140 °C. The compound also registered an inhibitory constant (Ki) at μ-opioid receptors of 1.33 nM.

`CCCN1CC[C@]23c4c5ccc(O)c4O[C@H]2C(=O)CC[C@@]3(OCCCc2ccccc2)[C@H]1C5` [Compound 11, 4,5α-epoxy-3-hydroxy-14β-(3-phenylpropyloxy)-17-propylmorphinan-6-one hydrochloride]: the ED50 was 1.6 µg/kg in the data set with mice [1] and 1.7 µg/kg with mice [2].

Regarding `CO[C@@]12CCC(=O)[C@]3(C)Oc4c(O)ccc5c4[C@@]31CCN(C)[C@@H]2C5` [14-methoxymetopon, reference compound], the “ED50 (μg/kg, sc)” value was found to be 30 µg/kg in the data set on mice [1], 7.2 µg/kg in the data set on rats (setting [4]) and 30 µg/kg in the data set on mice [2]. Also, the Ki at μ-opioid receptors (setting [5]) was determined as 0.55 nM.

`C[N@+]1(CC2CCCO2)CC[C@]23c4c5ccc(O)c4OC2C(=O)CCC3(OCCCc2ccccc2)C1C5.[I-]` (stereo partly drawn) [Compound 40, (17R)-4,5α-epoxy-3-hydroxy-17-methyl-6-oxo-14β-[(3-phenylpropyl)oxy]-17-[(2-R,S-tetrahydrofurfuran-2-yl)methyl]morphinanium-iodide]: the melting point lay within 156 to 159 °C. The compound further yielded a Ki on μ-opioid receptors of 0.37 nM.

The compound `C=CC[N@@+]1(C)CC[C@]23c4c5ccc(O)c4O[C@H]2C(=O)CC[C@@]3(OC)[C@H]1C5.[I-]` [Compound 42, (17R)-17-allyl-4,5α-epoxy-3-hydroxy-14β-methoxy-17-methyl-6-oxomorphinanium-iodide] came in with a melting point of 178 to 181 °C. On μ-opioid receptors, the Ki was 5.93 nM. Further, the “ability to overcome the blood-brain barrier” value in the data set with rats (inferred from icv versus sc activity) was “only to a limited degree”. Also, in the data set with rats (setting [3]), the “analgesic activity (in words)” value was “extremely active” and the “ED50 (μg/rat, icv)” value is listed as 0.22 μg/rat. Besides, in the data set on rats (setting [4]), the “analgesic effect (in words)” value is “very high analgesic effect” and the ED50 turned out to be 16 µg/kg.

As to `COc1ccc2c(c1OC)[C@]13CCN(C)[C@H](C2)[C@]1(OCCCc1ccccc1)CCC(=O)[C@H]3C` [Compound 32, 3,4-dimethoxy-5β,17-dimethyl-14β-[(3-phenylpropyl)oxy]morphinan-6-one hydrochloride], in the data set on mice [1], the “analgesic activity (in words)” value is on record as “very high analgesic activity” and the ED50 came to 14 µg/kg. In the data set with mice [2], the ED50 stood at 22 µg/kg and the “analgesic activity (in words)” value was “somewhat lower analgesic activity”.

Take `COc1cccc2c1[C@]13CC[N@@H+](CC4CC4)[C@H](C2)[C@]1(OCCCc1ccccc1)CCC(=O)C3.[Cl-]` [Compound 56, 17-(cyclopropylmethyl)-4-methoxy-14β-[(3-phenylpropyl)oxy]morphinan-6-one hydrochloride]: the melting point was in the range of 121 to 126 °C. At μ-opioid receptors, this compound returned a Ki of 0.34 nM.

Take `CN1CC[C@]23c4c5ccc(O)c4O[C@H]2[C@@H](O)C=C[C@H]3[C@H]1C5` [Morphine, reference compound]: the ED50 with rats (setting [4]) turned out to be 1900 µg/kg.
